Tested on: Prorhinotermes
Experiment: Juvenilizing activity against termite Prorhinotermes simplex at 0.5 mg m/L
Type: functional

| Compound | Activity [%] |
| --- | --- |
| CCCC(=O)O[C@@H]1CCCC[C@H]1Cc1ccc(OCCNC(=O)OCC)cc1 | 65 |
| CCCC(=O)O[C@H]1CCCC[C@@H]1Cc1ccc(OCCNC(=O)OCC)cc1 | 65 |
| CCCC(=O)O[C@H]1CCCC[C@H]1Cc1ccc(OCCNC(=O)OCC)cc1 | 65 |
| CCCC(=O)O[C@@H]1CCCC[C@@H]1Cc1ccc(OCCNC(=O)OCC)cc1 | 65 |

Reference: ChEMBL document CHEMBL1139754, “Insect pest control agents: Novel chiral butanoate esters (juvenogens)” (Bioorg Med Chem, 2007)
